Reference: patent US9340590B2 (priority 2011, dated 2016)
Like-named read-outs stand apart in the source and are kept apart here. Positions of bridges follow the written chain, without caps; N, C: chain ends. Non-standard residues stand in square brackets, D forms with d. Residues, ends and D or L forms follow the SMILES beside them. 1Nal = N[C@@H](Cc1cccc2ccccc12)C(=O)O; 2Nal = N[C@@H](Cc1ccc2ccccc2c1)C(=O)O; 2Pal = N[C@@H](Cc1ccccn1)C(=O)O; Abu = CC[C@H](N)C(=O)O

How the values were obtained:
[1] = molecular target: hNav1.7 (Homo sapiens, UniProt Q15858); assay: cell-based
Chain of hNav1.7 (Q15858 whole entry, looked up): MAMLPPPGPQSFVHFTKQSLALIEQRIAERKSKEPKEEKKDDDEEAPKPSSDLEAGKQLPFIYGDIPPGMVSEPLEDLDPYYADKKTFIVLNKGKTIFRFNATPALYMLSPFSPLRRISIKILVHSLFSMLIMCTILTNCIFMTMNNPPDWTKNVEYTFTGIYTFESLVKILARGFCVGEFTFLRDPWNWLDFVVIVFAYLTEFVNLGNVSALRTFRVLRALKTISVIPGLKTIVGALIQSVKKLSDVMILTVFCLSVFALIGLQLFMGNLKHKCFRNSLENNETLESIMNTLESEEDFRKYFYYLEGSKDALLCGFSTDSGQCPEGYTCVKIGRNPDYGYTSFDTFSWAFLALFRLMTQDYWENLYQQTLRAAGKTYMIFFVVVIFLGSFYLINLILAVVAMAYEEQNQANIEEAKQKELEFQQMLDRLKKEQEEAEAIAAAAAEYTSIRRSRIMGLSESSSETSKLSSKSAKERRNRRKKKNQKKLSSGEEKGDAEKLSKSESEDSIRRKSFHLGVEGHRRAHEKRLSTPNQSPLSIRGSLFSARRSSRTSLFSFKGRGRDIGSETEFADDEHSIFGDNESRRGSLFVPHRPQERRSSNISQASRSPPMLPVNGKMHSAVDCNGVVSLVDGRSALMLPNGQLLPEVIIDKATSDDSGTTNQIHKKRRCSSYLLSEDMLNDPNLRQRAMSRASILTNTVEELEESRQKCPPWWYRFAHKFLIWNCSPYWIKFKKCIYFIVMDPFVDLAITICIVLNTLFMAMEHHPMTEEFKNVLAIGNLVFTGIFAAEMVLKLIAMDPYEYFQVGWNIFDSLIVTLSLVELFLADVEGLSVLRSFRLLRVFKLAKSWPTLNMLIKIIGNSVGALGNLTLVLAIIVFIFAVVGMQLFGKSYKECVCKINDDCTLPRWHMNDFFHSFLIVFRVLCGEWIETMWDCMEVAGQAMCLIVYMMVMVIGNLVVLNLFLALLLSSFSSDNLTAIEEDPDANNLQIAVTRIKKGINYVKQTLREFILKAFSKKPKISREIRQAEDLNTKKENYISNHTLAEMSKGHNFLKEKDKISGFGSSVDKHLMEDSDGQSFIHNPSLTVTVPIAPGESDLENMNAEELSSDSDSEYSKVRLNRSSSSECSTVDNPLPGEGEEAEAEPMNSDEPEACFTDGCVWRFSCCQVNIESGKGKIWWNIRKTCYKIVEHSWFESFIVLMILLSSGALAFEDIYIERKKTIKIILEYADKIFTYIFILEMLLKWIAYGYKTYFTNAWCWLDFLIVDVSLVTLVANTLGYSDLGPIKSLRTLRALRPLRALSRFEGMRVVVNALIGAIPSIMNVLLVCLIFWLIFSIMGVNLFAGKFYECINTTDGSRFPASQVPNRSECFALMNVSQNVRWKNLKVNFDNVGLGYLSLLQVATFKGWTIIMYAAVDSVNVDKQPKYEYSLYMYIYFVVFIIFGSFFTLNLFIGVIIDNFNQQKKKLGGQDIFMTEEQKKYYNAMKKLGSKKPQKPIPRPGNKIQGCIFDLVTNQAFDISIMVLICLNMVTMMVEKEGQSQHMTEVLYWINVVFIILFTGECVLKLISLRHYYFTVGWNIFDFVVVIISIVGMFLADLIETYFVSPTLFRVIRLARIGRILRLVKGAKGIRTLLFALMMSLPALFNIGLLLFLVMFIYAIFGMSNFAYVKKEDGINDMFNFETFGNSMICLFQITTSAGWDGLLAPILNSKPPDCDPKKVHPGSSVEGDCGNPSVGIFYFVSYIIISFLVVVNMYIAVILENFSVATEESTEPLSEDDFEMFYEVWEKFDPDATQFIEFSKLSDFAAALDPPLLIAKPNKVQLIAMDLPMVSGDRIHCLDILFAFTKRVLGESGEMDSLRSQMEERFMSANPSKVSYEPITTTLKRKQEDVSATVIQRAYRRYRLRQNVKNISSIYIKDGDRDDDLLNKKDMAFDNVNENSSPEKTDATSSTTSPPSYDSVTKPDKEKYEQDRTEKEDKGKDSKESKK

[2] = molecular target: hNav1.5 (Homo sapiens, UniProt Q14524); assay: cell-based
Chain of hNav1.5 (Q14524 whole entry, looked up): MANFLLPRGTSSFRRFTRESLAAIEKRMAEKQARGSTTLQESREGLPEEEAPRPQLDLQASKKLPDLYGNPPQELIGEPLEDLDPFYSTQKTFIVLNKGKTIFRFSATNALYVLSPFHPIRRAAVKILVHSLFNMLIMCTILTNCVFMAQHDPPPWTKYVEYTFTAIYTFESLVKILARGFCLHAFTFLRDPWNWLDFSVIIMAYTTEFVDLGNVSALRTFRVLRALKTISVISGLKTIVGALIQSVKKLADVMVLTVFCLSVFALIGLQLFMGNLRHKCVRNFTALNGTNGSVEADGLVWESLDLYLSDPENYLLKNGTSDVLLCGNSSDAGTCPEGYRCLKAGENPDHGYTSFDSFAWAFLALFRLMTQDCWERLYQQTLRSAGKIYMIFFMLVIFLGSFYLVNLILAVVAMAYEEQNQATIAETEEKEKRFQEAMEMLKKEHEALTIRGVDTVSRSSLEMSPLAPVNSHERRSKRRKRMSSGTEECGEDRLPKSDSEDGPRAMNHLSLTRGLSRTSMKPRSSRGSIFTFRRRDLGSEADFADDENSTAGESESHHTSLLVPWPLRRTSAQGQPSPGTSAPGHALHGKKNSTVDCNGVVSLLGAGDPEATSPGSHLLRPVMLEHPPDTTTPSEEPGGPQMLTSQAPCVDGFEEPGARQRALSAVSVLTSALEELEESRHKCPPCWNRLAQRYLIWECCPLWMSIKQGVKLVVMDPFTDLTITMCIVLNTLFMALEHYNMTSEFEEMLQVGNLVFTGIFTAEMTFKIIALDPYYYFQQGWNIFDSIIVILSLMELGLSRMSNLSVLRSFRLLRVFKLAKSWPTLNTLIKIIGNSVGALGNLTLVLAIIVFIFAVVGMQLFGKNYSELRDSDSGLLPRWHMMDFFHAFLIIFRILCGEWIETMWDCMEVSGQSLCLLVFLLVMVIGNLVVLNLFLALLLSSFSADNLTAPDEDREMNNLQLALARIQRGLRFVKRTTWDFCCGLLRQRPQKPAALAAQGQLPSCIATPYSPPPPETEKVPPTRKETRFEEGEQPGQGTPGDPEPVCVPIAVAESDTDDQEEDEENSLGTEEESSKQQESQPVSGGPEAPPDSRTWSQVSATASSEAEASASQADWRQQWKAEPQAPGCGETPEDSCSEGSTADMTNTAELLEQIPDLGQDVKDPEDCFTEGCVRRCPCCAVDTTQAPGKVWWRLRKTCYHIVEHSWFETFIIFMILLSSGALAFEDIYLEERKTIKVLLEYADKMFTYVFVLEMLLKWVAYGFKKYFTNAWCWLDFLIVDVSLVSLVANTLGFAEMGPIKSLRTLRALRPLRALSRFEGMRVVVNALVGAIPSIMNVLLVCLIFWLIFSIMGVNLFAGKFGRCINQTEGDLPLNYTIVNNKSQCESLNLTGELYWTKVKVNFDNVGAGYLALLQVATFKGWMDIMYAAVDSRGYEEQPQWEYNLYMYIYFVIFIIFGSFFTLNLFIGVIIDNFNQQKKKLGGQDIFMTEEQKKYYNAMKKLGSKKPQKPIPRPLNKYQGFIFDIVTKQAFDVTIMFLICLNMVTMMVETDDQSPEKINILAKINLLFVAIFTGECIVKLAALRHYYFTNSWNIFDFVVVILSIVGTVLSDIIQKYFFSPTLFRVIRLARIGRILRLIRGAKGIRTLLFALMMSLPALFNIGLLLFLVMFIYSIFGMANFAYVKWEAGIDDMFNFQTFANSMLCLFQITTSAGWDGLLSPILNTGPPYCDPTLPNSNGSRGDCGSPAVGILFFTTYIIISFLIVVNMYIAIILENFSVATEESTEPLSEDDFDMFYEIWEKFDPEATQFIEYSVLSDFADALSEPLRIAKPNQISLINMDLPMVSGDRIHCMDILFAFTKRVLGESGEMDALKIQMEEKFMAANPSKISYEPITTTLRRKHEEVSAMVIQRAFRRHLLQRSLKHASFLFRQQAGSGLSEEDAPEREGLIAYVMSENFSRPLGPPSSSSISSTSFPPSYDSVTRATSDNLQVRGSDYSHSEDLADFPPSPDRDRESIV

Row | SMILES | IC50 ([1]; Nav1.7 Use IC50) | IC50 [2] | IC50 ([1]; read-out: Nav1.7 Use IC50)
1 | CC[C@H](C)[C@@H]1NC(=O)[C@@H]2CSSC[C@@H]3NC(=O)[C@H](C(C)C)NC(=O)[C@H](CC(C)C)NC(=O)[C@H](CC(N)=O)NC(=O)[C@@H]4CCCN4C(=O)[C@H](CCCNC(=N)N)NC(=O)[C@H](CSSC[C@H](NC(=O)[C@@H](N)CC(=O)O)C(=O)N[C@@H](CC(C)C)C(=O)NCC(=O)N[C@@H](Cc4ccccc4)C(=O)N[C@@H](CCSC)C(=O)N[C@@H](CCCNC(=N)N)C(=O)N[C@@H](CCCCN)C(=O)N2)NC(=O)[C@H](CSSC[C@@H](C(=O)N[C@@H](CCCCN)C(=O)N[C@@H](Cc2ccc(O)cc2)C(=O)N[C@H](C(=O)N[C@@H](Cc2ccccc2)C(=O)N[C@@H](Cc2ccccn2)C(N)=O)C(C)C)NC(=O)[C@H](Cc2c[nH]c4ccccc24)NC(=O)[C@H](CCCCN)NC(=O)[C@H](Cc2c[nH]cn2)NC(=O)[C@H]([C@@H](C)O)NC(=O)[C@H](CCCNC(=N)N)NC(=O)[C@H](CO)NC3=O)NC(=O)[C@H](CCCCN)NC(=O)[C@H](CC(=O)O)NC(=O)[C@H](CC(N)=O)NC(=O)[C@H](CC(=O)O)NC(=O)[C@@H]2CCCN2C1=O [GpTx-1(1-34)-2PAL] | 27 nM | > 10000 nM | –
2 | CC[C@H](C)[C@@H]1NC(=O)[C@@H]2CSSC[C@@H]3NC(=O)[C@H](C(C)C)NC(=O)[C@H](CC(C)C)NC(=O)[C@H](CC(N)=O)NC(=O)[C@@H]4CCCN4C(=O)[C@H](CCCNC(=N)N)NC(=O)[C@H](CSSC[C@H](NC(=O)[C@@H](N)CC(=O)O)C(=O)N[C@@H](CC(C)C)C(=O)NCC(=O)N[C@@H](Cc4ccccc4)C(=O)N[C@@H](CCSC)C(=O)N[C@@H](CCCNC(=N)N)C(=O)N[C@@H](CCCCN)C(=O)N2)NC(=O)[C@H](CSSC[C@@H](C(=O)N[C@@H](CCCCN)C(=O)N[C@@H](Cc2ccc(O)cc2)C(=O)N[C@H](C(=O)N[C@@H](Cc2ccccc2)C(N)=O)C(C)C)NC(=O)[C@H](Cc2c[nH]c4ccccc24)NC(=O)[C@H](CCCCN)NC(=O)[C@H](Cc2c[nH]cn2)NC(=O)[C@H]([C@@H](C)O)NC(=O)[C@H](CCCNC(=N)N)NC(=O)[C@H](CO)NC3=O)NC(=O)[C@H](CCCCN)NC(=O)[C@H](CC(=O)O)NC(=O)[C@H](Cc2cccc3ccccc23)NC(=O)[C@H](CC(=O)O)NC(=O)[C@@H]2CCCN2C1=O [[1-Nal13]GpTx-1(1-34)] (H-DCLGFMRKCIPD[1Nal]DKCCRPNLVCSRTHKWCKYVF-NH2; disulfide 2-17, 9-23, 16-30) | – | 7330 nM | 2 nM
3 | CC[C@@H]1NC(=O)[C@@H]2CSSC[C@@H](C(=O)N[C@@H](CCCCN)C(=O)N[C@@H](Cc3ccc(O)cc3)C(=O)N[C@H](C(=O)N[C@@H](Cc3ccccc3)C(N)=O)C(C)C)NC(=O)[C@H](Cc3c[nH]c4ccccc34)NC(=O)[C@H](CCCCN)NC(=O)[C@H](Cc3c[nH]cn3)NC(=O)[C@H]([C@@H](C)O)NC(=O)[C@H](CCCNC(=N)N)NC(=O)[C@H](CO)NC(=O)[C@H](CSSC[C@H](NC(=O)[C@H](CCCCN)NC(=O)[C@H](CCCNC(=N)N)NC(=O)[C@H](CCSC)NC(=O)[C@H](Cc3ccccc3)NC(=O)CNC(=O)[C@H](CC(C)C)NC(=O)[C@H](CC)NC(=O)[C@@H](N)CC(=O)O)C(=O)N[C@@H]([C@@H](C)CC)C(=O)N3CCC[C@H]3C(=O)N[C@@H](CC(=O)O)C(=O)N[C@@H](CC(N)=O)C(=O)N[C@@H](CC(=O)O)C(=O)N[C@@H](CCCCN)C(=O)N2)NC(=O)[C@H](C(C)C)NC(=O)[C@H](CC(C)C)NC(=O)[C@H](CC(N)=O)NC(=O)[C@@H]2CCCN2C(=O)[C@H](CCCNC(=N)N)NC1=O [[2-Abu2,17]GpTx-1(1-34)] (H-D[Abu]LGFMRKCIPDNDKC[Abu]RPNLVCSRTHKWCKYVF-NH2; disulfide 9-23, 16-30) | 21 nM | 10000 nM | –
4 | CC[C@@H]1NC(=O)CNC(=O)[C@H](CC(C)C)NC(=O)[C@@H](NC(=O)[C@@H](N)CC(=O)O)CSSC[C@@H]2NC(=O)[C@@H]3CSSC[C@@H](C(=O)N[C@@H](CCCCN)C(=O)N[C@@H](Cc4ccc(O)cc4)C(=O)N[C@H](C(=O)N[C@@H](Cc4ccccc4)C(N)=O)C(C)C)NC(=O)[C@H](Cc4c[nH]c5ccccc45)NC(=O)[C@H](CCCCN)NC(=O)[C@H](Cc4c[nH]cn4)NC(=O)[C@H]([C@@H](C)O)NC(=O)[C@H](CCCNC(=N)N)NC(=O)[C@H](CO)NC(=O)[C@H](CSSC[C@H](NC(=O)[C@H](CCCCN)NC(=O)[C@H](CCCNC(=N)N)NC(=O)[C@H](CC(C)C)NC1=O)C(=O)N[C@@H]([C@@H](C)CC)C(=O)N1CCC[C@H]1C(=O)N[C@@H](CC(=O)O)C(=O)N[C@@H](CC(N)=O)C(=O)N[C@@H](CC(=O)O)C(=O)N[C@@H](CCCCN)C(=O)N3)NC(=O)[C@H](C(C)C)NC(=O)[C@H](CC(C)C)NC(=O)[C@H](CC(N)=O)NC(=O)[C@@H]1CCCN1C(=O)[C@H](CCCNC(=N)N)NC2=O [[2-Abu5;Leu6]GpTx-1(1-34)] | 22 nM | > 10000 nM | –
5 | CC[C@H](C)[C@@H]1NC(=O)[C@@H]2CSSC[C@@H]3NC(=O)[C@H](C(C)C)NC(=O)[C@H](CC(C)C)NC(=O)[C@H](CC(N)=O)NC(=O)[C@@H]4CCCN4C(=O)[C@H](CCCNC(=N)N)NC(=O)[C@H](CSSC[C@H](NC(=O)[C@@H](N)CC(=O)O)C(=O)N[C@@H](CC(C)C)C(=O)NCC(=O)N[C@@H](Cc4ccccc4)C(=O)N[C@@H](CCSC)C(=O)N[C@@H](CCCNC(=N)N)C(=O)N[C@@H](CCCCN)C(=O)N2)NC(=O)[C@H](CSSC[C@@H](C(=O)N[C@@H](CCCCN)C(=O)N[C@@H](Cc2ccc(O)cc2)C(=O)N[C@H](C(=O)N[C@@H](Cc2ccccc2)C(N)=O)C(C)C)NC(=O)[C@H](Cc2ccc4ccccc4c2)NC(=O)[C@H](CCCCN)NC(=O)[C@H](Cc2c[nH]cn2)NC(=O)[C@H]([C@@H](C)O)NC(=O)[C@H](CCCNC(=N)N)NC(=O)[C@H](CO)NC3=O)NC(=O)[C@H](CCCCN)NC(=O)[C@H](CC(=O)O)NC(=O)[C@H](CC(N)=O)NC(=O)[C@H](CC(=O)O)NC(=O)[C@@H]2CCCN2C1=O [[2-Nal29]GpTx-1(1-34)] (H-DCLGFMRKCIPDNDKCCRPNLVCSRTHK[2Nal]CKYVF-NH2; disulfide 2-17, 9-23, 16-30) | 66 nM | > 10000 nM | –
6 | CC[C@H](C)[C@@H]1NC(=O)[C@@H]2CSSC[C@@H]3NC(=O)[C@H](C(C)C)NC(=O)[C@H](CC(C)C)NC(=O)[C@H](CC(N)=O)NC(=O)[C@@H]4CCCN4C(=O)[C@H](Cc4ccccn4)NC(=O)[C@H](CSSC[C@H](NC(=O)[C@@H](N)CC(=O)O)C(=O)N[C@@H](CC(C)C)C(=O)NCC(=O)N[C@@H](Cc4ccccc4)C(=O)N[C@@H](CCSC)C(=O)N[C@@H](CCCNC(=N)N)C(=O)N[C@@H](CCCCN)C(=O)N2)NC(=O)[C@H](CSSC[C@@H](C(=O)N[C@@H](CCCCN)C(=O)N[C@@H](Cc2ccc(O)cc2)C(=O)N[C@H](C(=O)N[C@@H](Cc2ccccc2)C(N)=O)C(C)C)NC(=O)[C@H](Cc2c[nH]c4ccccc24)NC(=O)[C@H](CCCCN)NC(=O)[C@H](Cc2cnc[nH]2)NC(=O)[C@H]([C@@H](C)O)NC(=O)[C@H](CCCNC(=N)N)NC(=O)[C@H](CO)NC3=O)NC(=O)[C@H](CCCCN)NC(=O)[C@H](CC(=O)O)NC(=O)[C@H](CC(N)=O)NC(=O)[C@H](CC(=O)O)NC(=O)[C@@H]2CCCN2C1=O [[2PAL18]GpTx-1(1-34)] (H-DCLGFMRKCIPDNDKCC[2Pal]PNLVCSRTHKWCKYVF-NH2; disulfide 2-17, 9-23, 16-30) | 3 nM | 13700 nM | –
7 | CC[C@H](C)[C@@H]1NC(=O)[C@@H]2CSSC[C@@H]3NC(=O)[C@H](Cc4ccccn4)NC(=O)[C@H](CC(C)C)NC(=O)[C@H](CC(N)=O)NC(=O)[C@@H]4CCCN4C(=O)[C@H](CCCNC(=N)N)NC(=O)[C@H](CSSC[C@H](NC(=O)[C@@H](N)CC(=O)O)C(=O)N[C@@H](CC(C)C)C(=O)NCC(=O)N[C@@H](Cc4ccccc4)C(=O)N[C@@H](CCSC)C(=O)N[C@@H](CCCNC(=N)N)C(=O)N[C@@H](CCCCN)C(=O)N2)NC(=O)[C@H](CSSC[C@@H](C(=O)N[C@@H](CCCCN)C(=O)N[C@@H](Cc2ccc(O)cc2)C(=O)N[C@H](C(=O)N[C@@H](Cc2ccccc2)C(N)=O)C(C)C)NC(=O)[C@H](Cc2c[nH]c4ccccc24)NC(=O)[C@H](CCCCN)NC(=O)[C@H](Cc2c[nH]cn2)NC(=O)[C@H]([C@@H](C)O)NC(=O)[C@H](CCCNC(=N)N)NC(=O)[C@H](CO)NC3=O)NC(=O)[C@H](CCCCN)NC(=O)[C@H](CC(=O)O)NC(=O)[C@H](CC(N)=O)NC(=O)[C@H](CC(=O)O)NC(=O)[C@@H]2CCCN2C1=O [[2PAL22]GpTx-1(1-34)] (H-DCLGFMRKCIPDNDKCCRPNL[2Pal]CSRTHKWCKYVF-NH2; disulfide 2-17, 9-23, 16-30) | 7 nM | 16000 nM | –
8 | CC[C@H](C)[C@@H]1NC(=O)[C@@H]2CSSC[C@@H]3NC(=O)[C@H](C(C)C)NC(=O)[C@H](CC(C)C)NC(=O)[C@H](CC(N)=O)NC(=O)[C@@H]4CCCN4C(=O)[C@H](CCCNC(=N)N)NC(=O)[C@H](CSSC[C@H](NC(=O)[C@@H](N)CC(=O)O)C(=O)N[C@@H](CC(C)C)C(=O)NCC(=O)N[C@@H](Cc4ccccc4)C(=O)N[C@@H](CCSC)C(=O)N[C@@H](CCCNC(=N)N)C(=O)N[C@@H](CCCCN)C(=O)N2)NC(=O)[C@H](CSSC[C@@H](C(=O)N[C@@H](CCCCN)C(=O)N[C@@H](Cc2ccccn2)C(=O)N[C@H](C(=O)N[C@@H](Cc2ccccc2)C(N)=O)C(C)C)NC(=O)[C@H](Cc2c[nH]c4ccccc24)NC(=O)[C@H](CCCCN)NC(=O)[C@H](Cc2c[nH]cn2)NC(=O)[C@H]([C@@H](C)O)NC(=O)[C@H](CCCNC(=N)N)NC(=O)[C@H](CO)NC3=O)NC(=O)[C@H](CCCCN)NC(=O)[C@H](CC(=O)O)NC(=O)[C@H](CC(N)=O)NC(=O)[C@H](CC(=O)O)NC(=O)[C@@H]2CCCN2C1=O [[2PAL32]GpTx-1(1-34)] (H-DCLGFMRKCIPDNDKCCRPNLVCSRTHKWCK[2Pal]VF-NH2; disulfide 2-17, 9-23, 16-30) | 35 nM | > 10000 nM | –
